According to patent US20240228537A1, “BLOCK COPOLYPEPTIDES AND USE THEREOF” (National Cheng Kung University, priority 2023, published 2024):

Tests used:
LL2 tumor = assay: Murine syngeneic LL2 lung tumor model; type: in vivo; settings: LL2 tumor-bearing mice
Protocol: Briefly, LL2 cells that had been transfected with the luciferase reporter gene were inoculated subcutaneously into C57BL/6 mice.
LL2 cells (5×10^5) expressing a luciferase reporter were inoculated subcutaneously into the backs of C57BL/6 mice, as a lung cancer animal model. After 7 days, saline control or copolypeptides were injected intratumorally to start the beginning of the timeline (day zero). […] Tumor growth, body weight, and survival were closely monitored. Tumor volume was calculated using the following equation: (length of tumor)×(width of tumor)^2×0.45 by measuring the tumors in two perpendicular axes with a tissue caliper. Once the tumor volume reached 2,000 mm^3, the mice were sacrificed and subsequently recorded as dead. […] On day 12, mice were intraperitoneally injected with D-luciferin potassium salt (200 μL, 10 mg/mL, Thermo Fisher Scientific), followed by anesthesia with 2% isoflurane in order to perform in vivo bioluminescence imaging. An IVIS-200 Perkin Elmer system with its integrated acquisition and analysis software (Living Image V. 2.50) was performed to quantify the said signals. On day 32, an optical microscope was used to examine the number of pulmonary metastatic nodules.

H1299 cells [1] = assay: Cytotoxicity, CCK-8 assay; type: cell-based; settings: H1299, linear copolypeptides, 0 to 100 μM
Protocol: The cytotoxicity of copolypeptides at various concentrations or in combination with cisplatin (5 μM) was evaluated by incubating with A549, BEAS-2B, and H1299 cells (5×10^3 cells/well) in 96-well plates for 24 h using 10% FBS DMEM as the medium. After adding CCK-8 reagent (Targetmol) dissolved in serum-free medium, the well plates were incubated at 37° C. for 1 h. Upon transferring the medium to fresh 96-well plates, the absorbance of each well was measured at 450 nm using a Microplate Spectrophotometer (BioTek). The percentages of viable cells were calculated by the below equation:
Cell viability (%)=(Absorbancetest cell−Absorbanceblank)/(Absorbancecontrol cell−Absorbanceblank)×100

caspase-3, and PARP = assay: Immunoblot analysis in H1299 cells; type: cell-based; settings: H1299, 24 h
Protocol: (§1) In the present disclosure, E-cadherin is one of the crucial molecules in cell-cell adhesion, participating in cancer progression.
(§2) The immunoblot analysis was conducted by treating H1299 cells with copolypeptides (4 μM) in the presence or absence of cisplatin (5 μM) for 24 h, followed by extraction using RIPA Lysis and Extraction Buffer (Thermo Fisher Scientific) and then separation by using 8% SDS-PAGE. Upon transferring onto NC membranes (0.22 μm) blocked in 5% fat-free dry milk, the proteins were incubated with primary antibodies against E-cadherin, caspase-3, poly(ADP-ribose) polymerase (PARP), and β-actin, followed by incubation with their appropriate secondary antibodies. An Immobilon Western Chemiluminescent HRP Substrate kit (Merck) was used to form visualized protein bands and the intensities of the protein bands were quantified using the Image J software (Image Processing and Analysis in Java) by normalizing to that of β-actin.

E-cadherin = assay: Immunoblot analysis in H1299 cells; type: cell-based; settings: H1299, 24 h
Protocol: as §1, §2

[2] = Secondary conformation by circular dichroism (BeStSel fit); type: physicochemical; settings: CD, 0.1 mg mL^−1 in DI water, neutral condition
Protocol: The BeStSel software (Beta Structure Selection) was used to compute the percentages of peptide chain conformation by fitting the CD spectra.
The MALDI-TOF MS spectrum of the side-chain protected peptide was recorded in the reflection mode of a MALDI-TOF spectrometer (Bruker Autoflex III TOF/TOF). […] For CD measurements, the concentration of peptide samples in DI water was 0.1 mg mL^−1. SAXS patterns of peptide solutions were recorded on a Bruker NanoSTAR U diffractometer with controlled voltage 45 kV and current 650 μA at room temperature under 4×10^−1 torr. The critical aggregation concentration (cac) of peptides was determined by measuring the pyrene emission spectra of various peptide solutions with an integration time of 1.0 sec using a Hitachi FL-4500 fluorescence spectrophotometer.

A549 cells = assay: Membrane staining with 1,1′-diethyl-4,4′-carbocyanine iodide; type: cell-based; settings: A549, 4 μM, 6 h
H1299 cells [3] = assay: as above; type: cell-based; settings: H1299, 4 μM, 6 h
[4] = system: H1299 (p53-deficient) cells; assay: Transfection efficiency of copolypeptides/pDNA polyplexes; type: cell-based; settings: H1299, relative to lipofectamine 2000
Source text: LysmBnCys5 copolypeptides (m=5, 10, and 15, i.e., SEQ ID NOs: 2, 5, and 3)) efficiently carried p53 gene (pcDNA3 p53 WT plasmid) into H1299 (p53-deficient) cells and enhanced chemotherapeutic treatment. […] Improved transfection efficiency was mainly attributed to optimal polyplex stability, determined by peptide charge density and rigidity. […] Moreover, treatment with both LysmBnCys5/p53 gene vector and cisplatin extended the survival rates of tumor-bearing mice.
FIGS. 22A-22B are results showing the p53 gene transfection efficiencies of various star-shaped copolypeptides to H1299 cells.
5.0 μM copolypeptides or 4.0 μL lipofectamine 2000 (Thermo Fisher Scientific) were mixed with 4.0 μg of plasmid DNA (pEGFP-C, Clontech) in 1 mL serum-free DMEM and left standing for 20 min. After cell concentration reached 2×10^5 cells/well in 6-well plates, the culture medium was replaced with 1 mL copolypeptides/DNA complexes (polyplexes) and incubated for 6 h. […] Green fluorescent protein (GFP) expression of transfected cells was examined under an inverted fluorescence microscope (IX71, Olympus). Quantitative evaluation of the transfection efficiency was also conducted using a flow cytometer (BD Biosciences). […] Transfection efficiency was then calculated as the percentage of cells expressing GFP, with the fluorescence of 2×10^4 cells evaluated by flow cytometry.

Q: Which body weight loss (LL2 tumor) does the source give for N.N.[Cl][Pt][Cl] [cisplatin] here?
A: The body weight loss was “weight loss”.

Q: With “Lys10BnCys5: poly-L-lysine-block-poly-S-benzyl-L-cysteine, 10 and 5 residues” as the compound, how does the cell viability (H1299 cells [1]) read?
A: The cell viability was “cell viability decreased with increasing concentration”.

Q: What does the source list for LLLLLCCCCC [Lys5Cys5]?
A: caspase-3 and PARP expression (caspase-3, and PARP): triggered caspase-3, and PARP expression significantly; E-cadherin expression (E-cadherin): reduced E-cadherin expression; Random coil (%) [2]: 32.0%; ß-sheet/turn (%) [2]: 68.0%; membrane staining with 1,1′-diethyl-4,4′-carbocyanine iodide (A549 cells): not; membrane staining with 1,1′-diethyl-4,4′-carbocyanine iodide (H1299 cells [3]): not

Q: For “poly-L-lysine (LLLLLLLLLLLLLLL) [PLL15, poly-L-lysine, 15 residues]”, which cell viability (H1299 cells [1]) is on record?
A: The cell viability was “cell viability decreased with increasing concentration”.

Q: Which results are given for “Lys15BnCys5: poly-L-lysine-block-poly-S-benzyl-L-cysteine, 15 and 5 residues”?
A: cell viability (H1299 cells [1]): cell viability decreased with increasing concentration; transfection efficiency [4]: almost equivalent to that using lipofectamine 2000

Q: With poly-L-guanidinylated lysine [PLGL15] as the compound, how does the cell viability (H1299 cells [1]) read?
A: The cell viability was “cell viability decreased with increasing concentration”.
